Ends that are not written are not given here.
Legend:
[1] = system: vascular hyperpermeability due to diabetic retinopathy; assay: Vascular hyperpermeability due to diabetic retinopathy, streptozotocin, dextran-FITC fluorescence (Experimental Example 10); type: in vivo, Sprague Dawley (SD) male rats; conditions: hyaluronic acid test group = 100%; intravitreal 10 μL, peptide 5 mg/ml; four weeks after streptozotocin
Description: Four groups consisted of a hyaluronic acid test group, an anti-Flt1 peptide (GGNQWFI) (SEQ ID NO: 3) test group, a test group of the hyaluronic acid-peptide conjugate with a lower peptide content (with 20 peptides being conjugated per one molecule of HA-TBA) as prepared from Preparation Example 3 (HA-GGNQWFI), and a test group of the hyaluronic acid-peptide conjugate with a higher peptide content (with 28 peptides being conjugated per one molecule of HA-TBA) as prepared from Preparation Example 3(HA-GGNQWFI(2)). The anti-Flt1 peptide sample and the hyaluronic acid-peptide conjugate samples were made to have an identical peptide concentration of 5 mg/ml. First, each rat was injected intraperitonially with 60 mg/kg of streptozotocin dissolved in 10 mM citrate buffer at pH 4.5 in order for diabetes to be induced. In three days after the injection of streptozotocin, the rat was determined to develop diabetes when its serum concentration of glucose was at least 300 mg/dL. In a week after the injection of streptozotocin, 10 μL of each sample solution was injected into the vitroeus body. In four weeks after the injection of streptozotocin, the effect of inhibiting vascular hyperpermeability due to diabetic retinopathy was determined by the fluorescence microscopic analysis with using dextran-FITC (MW=10,000) in the same manner as set forth in Experimental Example 7-1.

[2] = biological target: T1, binding between Flt1-Fc and VEGF165 (Homo sapiens, UniProt P17948); assay: Inhibition of binding between Flt1-Fc and VEGF165 (chemiluminescence ELISA)
T1 construct: purchased R&D Systems
T1 sequence (P17948 with tags, fused parts or gaps isoform P17948-2 limits assumed): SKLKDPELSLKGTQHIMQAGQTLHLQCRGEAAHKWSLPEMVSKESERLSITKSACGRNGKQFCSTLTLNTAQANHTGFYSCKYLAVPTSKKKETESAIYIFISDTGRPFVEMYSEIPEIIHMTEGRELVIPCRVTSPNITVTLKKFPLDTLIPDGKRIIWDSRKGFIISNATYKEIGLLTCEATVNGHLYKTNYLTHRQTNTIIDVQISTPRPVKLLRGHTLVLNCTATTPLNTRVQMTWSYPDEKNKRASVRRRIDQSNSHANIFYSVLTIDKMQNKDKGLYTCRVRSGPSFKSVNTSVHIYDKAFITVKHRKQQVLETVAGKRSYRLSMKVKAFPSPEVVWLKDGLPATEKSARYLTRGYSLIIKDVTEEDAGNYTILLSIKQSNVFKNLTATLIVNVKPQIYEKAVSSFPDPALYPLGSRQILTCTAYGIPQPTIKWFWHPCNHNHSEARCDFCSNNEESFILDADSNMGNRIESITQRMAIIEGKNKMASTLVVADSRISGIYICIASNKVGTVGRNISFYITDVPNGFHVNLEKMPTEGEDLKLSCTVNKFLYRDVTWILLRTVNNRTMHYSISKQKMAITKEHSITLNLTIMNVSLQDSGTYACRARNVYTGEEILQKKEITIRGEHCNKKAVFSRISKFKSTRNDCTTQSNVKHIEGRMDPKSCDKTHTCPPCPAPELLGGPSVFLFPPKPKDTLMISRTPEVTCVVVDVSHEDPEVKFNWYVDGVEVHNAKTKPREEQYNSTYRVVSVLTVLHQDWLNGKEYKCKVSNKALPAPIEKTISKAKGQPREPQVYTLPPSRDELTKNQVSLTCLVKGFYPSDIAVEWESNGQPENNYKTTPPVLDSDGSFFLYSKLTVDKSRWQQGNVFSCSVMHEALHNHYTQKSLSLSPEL
Description: A VEGF165 solution (with a concentration in PBS of 0.5 μg/mL) (R&D System) was put into 96-black well-plate, and reacted overnight at 4° C. to give a VEGF165-coated well. After being washed with PBS, the well was blocked with a blocking buffer (which is a BSA solution with BSA(Sigma-Aldrich) dissolved therein at a concentration of 3 wt % in a PBS buffer solution at pH 7.4) and washed again with PBS (at room temperature for 2 hours). The solutions of the anti-Flt1 peptide (GGNQWFI) (SEQ ID NO: […]) (SEQ ED NO: 3) and 500 ng/mL of Flt1-Fc (R&D systems, Minneapolis, Minn.) in a solution of BSA(Sigma-Aldrich) as dissolved in PBS (pH 7.4) at 1 wt %, or the solution of the hyaluronic acid-peptide conjugate with a lower peptide content of Preparation Example 3 test group (HA-GGNQWFI) (as prepared by conjugating 20 peptides per one HA-TBA molecule) was added to the VEGF165-coated well, and incubated at room temperature for one hour. […] Then, after the well was washed with a PBS comprising 0.05 wt % of Tween 20 three times and washed with a PBS once, the amount of the conjugated Flt1-Fc was measured with BM chemiluminescence ELISA substrate system (Victor 3 luminometer, PerkinElmer, Mass.). […]
The luminescence value of the positive control group without being treated with anti-FR1 peptide was set to be 100% and other data were normalized.

[3] = Appearance / water solubility in aqueous solution; type: physicochemical; conditions: PBS, final peptide concentration 1.25 mg/mL
Description: The anti-Flt1 peptide (GGNQWFI) (SEQ ID NO: 3) and the hyaluronic acid-peptide conjugate with a lower peptide content as prepared from Preparation Example 3 were dissolved in 4004, of PBS to have a final peptide concentration of 1.25 mg/mL, respectively. The amount of the anti-Flt1 peptide contained in each solution was measured with a changeable UV transilluminator (DUT-260, Core Bio System, Korea) by using 312 nm of light source. The formation of the hyaluronic acid-peptide micelle in an aqueous solution was confirmed by using a transmission electron microscope (TEM) (Hitachi, Tokyo, Japan). For a TEM analysis, 10 μL of the hyaluronic acid-peptide conjugate solution was dropped onto a 300 mesh copper TEM grid with a carbon film and then was dried. The average particle size was calculated out from the diameters obtained from the images of 30 particles.

[4] = Pharmacokinetics in the vitreous body after intravitreal injection; type: in vivo, Sprague Dawley (SD) male rats
Description: Three groups consisted of a hyaluronic acid (HA) test group, an anti-Flt1 peptide (GGNQWFI) (SEQ ID NO: 3) test group, and a test group of the hyaluronic acid-peptide conjugate with a lower peptide content as prepared from Preparation Example 3 (HA-GGNQWFI). The anti-Flt1 peptide sample and the hyaluronic acid-peptide conjugate sample were made to have an identical peptide concentration of 5 mg/ml. 10 μL of each sample solution was injected into the vitroeus body, which was sampled in 6 hours, 1 day, 3 days, 7 days, 10 days, and 14 days and stored at −20° C. until analysis. The concentration of the anti-Flt1 peptide in the vitreous body was measured with fluorescence analysis. Specifically, the vitreous body was disintegrated by using 200 μL of RIPA buffer, and then subjected to centrifugation under 14,000 g at 4° C. for 10 minutes to provide a supernatant solution. By using a spectrofluorometer (Cary Eclipse Fluorescence Spectrophotometer, Varian, Australia), the photoluminescence of each sample was measured at an excitation wave length of 280 nm and an emission wavelength of 350 nm. The vitreous body of the SD rat that was not treated at all was used as a blank control.

[5] = male, Sprague Dawley (SD), vitreous body, 50 µg, rat, single intravitreal 10 μL, peptide 5 mg/ml
[6] = rat, single intravitreal 10 μL, peptide 5 mg/ml

Substance | average intensity of the fluorescence of retina (dextran-FITC) [1] [%] | inhibition of the bonding between VEGF165 and Flt1-Fc ([2]; at 200 nM) | appearance in the aqueous solution (water solubility) [3] | Cmax [4, 5] [µg/mL] | Tmax [4, 5] [h] | time for which the concentration in the vitreous body was maintained above base line [4, 6] | inhibition of the bonding between VEGF165 and Flt1-Fc, up to ([2]; dose-dependent, 20-20000 nM peptide, positive control set to 100%) | Cmax in the vitreous body [4, 6] [mg/mL] | Tmax in the vitreous body [4, 6] [h] | AUC / bioavailability (AUC/dose) in the vitreous body ([4]; same dose, compared with anti-Flt1 peptide)
GGNQWFI [anti-Flt1 peptide, GGNQWFI] | 79.0±9.2 | failed to inhibit | became turbid | 800 ± 700 | 24 | < 10 days | – | – | – | –
HA-GGNQWFI: hyaluronic acid (MW 100 kDa) conjugated with GGNQWFI, 20 peptides per one molecule of HA-TBA (also: conjugated to hyaluronic acid, about 20 peptides per HA) | 58.4±7.8 | – | became clear | – | – | at least 14 days | about 32% | 1.6 ± 0.6 | 6 | higher AUC than that of the anti-Flt1 peptide
